Experimental data from US12290654B2, “Using alternating electric fields to increase permeability of the blood brain barrier” (Novocure GmbH, priority 2018, dated 2025).

Columns and labels:
[1] = system: blood brain barrier (rat brain); assay: Evans Blue accumulation in rat brain after alternating electric fields; assay type: in vivo, rats
Description: A set of in vivo experiments on rats was also run to quantify the increase in vessel permeability caused by exposure to the alternating electric fields. These experiments used Evans Blue (EB) dye, which is an azo dye that has a very high affinity for serum albumin (molecule size ˜69 kDa). Because of its large molecule size, serum albumin will ordinarily not be able to get past the BBB.
This was accomplished by shaving each rat's head, positioning a first pair of capacitively coupled electrodes on the top and bottom of the rat's head, and positioning a second pair of capacitively coupled electrodes on the left and right sides of the rat's head. A 100 kHz AC voltage was then applied between the top and bottom electrodes for 1 second, followed by a 100 kHz AC voltage applied between the right and left electrodes for 1 second, in a repeating sequence.
Under the conditions indicated in Table 1 and for the times indicated on Table 1, EB was injected intravenously into the tail vein under anesthesia (Once injected, EB immediately binds to Albumin), and the EB was allowed to circulate for 2 hours in all cases. The following steps were then performed: (a) intracardiac perfusion with saline; (b) brains are sliced in four pieces with a brain slicer; (c) pieces were photographed to localize staining and weighted; (d) EB extraction after tissue homogenization with TCA 50% (1:3) and centrifuge and (e) EB quantification at 610 nm. Results are given as μg EB per g tissue.
During the experiment, two animals from group 2 and one animal from group 4 were excluded (disrupted treatment, failure to inject EB into the tail vein). There were no differences between the animals treated with alternating electric fields (groups 1 and 2) and therefore these animals were grouped together. Similarly, there were no differences between sham heat and control animals (groups 3 and 4) and therefore these animals were grouped together.
EB accumulation in these four specific sections was then measured. In addition, a computer simulation was performed to determine the field strength in each of these four sections. […]

[2] = system: blood brain barrier (rat brain); assay: DCE-MRI contrast agent accumulation in rat brain; assay type: in vivo, rats
Procedure: Yet another set of in vivo experiments was performed using Dynamic Contrast Enhanced MRI (DCE-MRI) with intravenous injection of Gadolinium contrast agent (Gd-DTPA, Magnetol, MW 547). In these experiments, test rats were treated with 100 kHz alternating electric fields for 72 h, and control rats were not treated with alternating electric fields for the same period of time. After this 72 h period, the alternating electric field was turned off, the rats were anesthetized, and a series of 60 T1w MRI scans (each of the scans having a duration of 28 seconds) was acquired. The gadolinium contrast agent was injected into the rat's tail vein during the 7th of these 60 scans.
The image analysis for each rat included (1) determining a baseline for each voxel by calculating the mean of the first six T1w MRI scans for each voxel (i.e., the scans prior to the injection of the gadolinium); (2) computing voxel by voxel, the percent signal change (i.e., gadolinium accumulation) over time relative to the baseline; (3) segmenting the brain into anterior, middle, and posterior segments; (4) generating for each of the three segments the mean percent signal change with respect to the baseline over all the voxels in the respective segment and then (5) averaging 4 consecutive time points (i.e. 4 scans) together. Finally, the data from all of the rats within any given group were averaged together. […]

| average EB accumulation in the rat brain, averaged over all four sections 1-4 ([1]; 100 kHz fields 72 hours vs sham heat/control, p<0.05) | EB accumulation, sections 1, 2 (frontal cerebrum) ([1]; 100 kHz fields 72 h vs sham heat/control, EB i.v., circulated 2 hours, sections where field strength was highest) | Compound | EB accumulation, more posterior sections (3, 4) ([1]; 100 kHz fields 72 h vs sham heat/control, EB i.v., circulated 2 hours, sections where field strength was lower) | contrast agent accumulation in the brain tissue (DCE-MRI percent signal change) ([2]; 100 kHz fields 72 h (n=6) vs control rats (n=3), most pronounced in posterior brain) | contrast agent accumulation in the brain tissue (DCE-MRI percent signal change) ([2]; 100 kHz fields 72 hours followed by 96 hours without fields (n=7) vs control+96h (n=3)) |
| --- | --- | --- | --- | --- | --- |
| higher accumulation | statistically significant increase | Cc1cc(-c2ccc(/N=N/c3ccc4c(S(=O)(=O)O)cc(S(=O)(=O)O)c(N)c4c3O)c(C)c2)ccc1/N=N/c1ccc2c(S(=O)(=O)O)cc(S(=O)(=O)O)c(N)c2c1O [EB, Evans Blue] | smaller increase (that was not statistically significant) | – | – |
| – | – | O=C([O-])CN(CCN(CC(=O)[O-])CC(=O)O)CCN(CC(=O)[O-])CC(=O)O.[Gd+3] [contrast agent, Gd-DTPA] | – | significantly higher | not significantly different |
